According to patent publication US20030130200A1, “Small peptides and methods for treatment of asthma and inflammation” (Hisatek, LLC, priority 1997, published 2003):

Columns and labels:
[1] = tested on: OVA-induced asthmatic mice; assay: OVA-induced bronchial asthma mouse model, Standard/Resolution protocols, drug before each i.n. challenge; type: in vivo, mouse (female BALB/c); details: 1-, 2- and 3-month groups, versus OVA
Excerpt: The OVA-Induced Bronchial Asthma Mouse Model for Inhibition of Mast Cell Degranulation
Reagents: Crystalline OVA was obtained from Pierce Chem. Co. (Rockford, Ill.) aluminum potassium sulfate (alum) from Sigma Chem. Co. (St. Louis, Mo.), pyrogen-free distilled water from Baxter, Healthcare Corporation (Deerfield, Ill.), 0.9% sodium chloride (normal saline) from Lymphomed (Deerfield, Ill.) and Trappsol™ HPB-L100 (aqueous hydroxypropyl beta cyclodextrin; 45 wt/vol % aqueous solution) from Cyclodextrin Technologies Development, Inc. (Gainesville, Fla.). The OVA (500 μg/ml in normal saline) was mixed with equal volumes of 10% (wt/vol) alum in distilled water. The mixture (pH 6.5 using 10 N NaOH) after incubation for 60 minutes at room temperature underwent centrifugation at 750 g for 5 minutes; the pellet was resuspended to the original volume in distilled water and used within one hour.
The selective 5-lipoxtgenase inhibitor, Zileuton (N-[1-benzo[b]thien-2-ylethyl]-N-hydroxyurea; J. Pharmacol Exp Ther. 1991; 256: 929-937), was kindly provided by Drs. Bell and George W. Carter (Abbott Laboratories, Abbott Part, Ill.). Zileuton was dissolved in Trappsol.™. Histatek, Inc. (Seattle, Wash.) provided the mast cell degranulation inhibitor, f-Met-Leu-Phe-Phe (“HK-X”).
Female BALB/c […] (6-8 wk of age at purchase; D and K, Seattle Wash.) were housed under conventional conditions for the studies.
Allergen Immunization/Challenge Protocols: Mice received an i.p. injection of 0.2 ml (100 μg) of OVA with alum on the different protocols of Standard (FIG. 5A) and Resolution (FIG. 5B) (J. Exp Med. 1996; 184: 1483-1494). According to the different protocols, mice were anesthetized with 0.2 ml i.p. of ketamine (0.44 mg/ml)/xylazine (6.3 mg/ml) in normal saline before receiving an intranasal (i.n.) does of 100 μg OVA in 0.05 ml normal saline and an i.n. dose of 50 μg OVA in 0.05 ml normal saline separately on different days. Two control groups were used. Accordingly, the first group received normal saline with alum i.p. and normal saline without alum i.n.; the second group received OVA with alum i.p., OVA without alum i.n., and normal saline, alone.
The trachea and left lung (the right lung is used for bronchoalveolar lavage (“BAL”)) were obtained and fixed in 10% neutral formaldehyde solution at room temperature for 6˜15h. After being embedded in paraffin, the tissues were cut into 5-um sections and processed with the different staining or immunolabling further. Discombe's eosinophil staining was used for counting the cell numbers with the counterstain of methylene blue. The eosinophil number per unit airway area (2,200 μm^2) was determined by morphometry (J. Pathol. 1992; 166: 395-404; Am Rev Respir Dis. 1993; 147:448-456). Fibrosis was identified with the Masson's trichrome staining. Airway mucus was identified by the following staining method: methylene blue, hematoxylin and eosin, mucicarmine, alcian blue, and alcian blue/periodic acid-Schiff (PAS) reaction (Troyer, H., “Carbohydrates” in Principles and Techniques of Histochemistry, Little, Brown and Company, Boston, Mass., 1980: 89-121; Sheehan, D. C., et al., “Carbohydrates” in Theory and Practice of Histotechnology, Battle Press, Columbus, Ohio, 1980: 159-179). Mucin was stained with mucicarmine solution; metanil yellow counterstain was employed.
Acidic mucin and sulfated mucosubstances were stained with alcian blue, pH 2.5; nuclear fast red counterstain was used. Neutral and acidic mucosubstances were identified by alcian blue. pH 2.5, and PAS reaction. The degree of mucus plugging of the airways (0.5-0.8 mm in diameter) was also assessed by morphometry. The percent occlusion of airway diameter by mucus was classified on a semiquantitative scale from 0 to 4+ as described in Figure Legends. The histologic and morphometric analyses were performed by individuals blinded to the protocol design. […]

mast cells = assay: Rat skin model for inhibition of mast cell degranulation induced by Compound 48/80 (area of capillary permeability/bluing); type: in vivo, rat (male Sprague-Dawley); details: for % Degranulation: percent mast cell degranulation produced by 48/80, 100 nanomoles peptide, 0.15 μg Compound 48/80
Excerpt: The Rat Skin Model for Determination of Inhibition of Mast Cell Degranulation
Allergy induced asthma results from exposure of substances (allergens) to which an organism has become hypersensitized. Exposure to allergen results in degranulation of mast cells in the lung, releasing leukotrienes and histamines. […] Respiratory symptoms resulting from such an exposure range from mild (itching and sneezing) to potentially fatal (asthma), including in extreme chronic cases death by anaphylaxis.
In this model, the blood plasma of the experimental rat is labeled with the dye trypan blue. This soluble dye is carried in the bloodstream as a passive marker of plasma itself, and is excluded from live cells. Intact blood vessels including the capillary system, retain this dye under normal circumstances. A compound, which induces degranulation of mast cells (resulting in leukotriene and histamine release), is injected into the skin to simulate allergen-induced degranulation. In these experiments, Compound 48/80 was used for this purpose. In the events following leukotriene and histamine release, capillary permeability is increased, and plasma, dyed blue, leaks from capillaries and dyes the skin surrounding the injection site blue. The area of bluing is a measure of the amount of Compound 48/80 injected.
A compound can be tested for “anti-leukotriene” and/or “anti-histamine” activity by mixing it with Compound 48/80 prior to injection.
The rat skin model was undertaken and validated. Various peptides were tested at a predetermined dose for anti-leukotriene and/or anti-histamine activity. The dose selected allowed a general comparison to f-Met-Leu-Phe, which was standard compound for comparison.
A “dose response” titration was performed for some compounds and compared with the standard compound. Observing serial decreases in the size areas of capillary permeability using serially smaller doses of the putative inhibitory compound validates the inhibition of leukotriene and/or histamine release observed in the initial predetermined dose test.
Reagents were obtained from Sigma or Aldrich, with the exception of ketamine, a veterinary anaesthetic that was obtained from various veterinary suppliers. The rats used were male Sprague-Dawley breed, 220-240 g at time of purchase from B&K International.
For the rat skin reaction, rats were anaesthetized with 0.25 ml 10 mg/ml ketamine. 1.0 ml trypan blue in saline (sterile filtered) was administered in a tail vein, and the back of the rat was shaved. Four intradermal injection sites per rat were used for test and control injections.
Compound 48/80 was prepared as a 1.5 mg/ml stock solution in saline. […] Serial dilutions in saline to working levels were prepared just prior to injection of each rat.
Peptides were prepared as a 23 mM stock solution in DMSO, and stored at −20° C. between experiments. At the time of use, the frozen stock solutions were thawed, and appropriate aliquots added to dilutions of Compound 48/80, along with appropriate amounts of DMSO, to result in the ratio of 5 μl DMSO to 0.1 ml aqueous Compound 48/80.
For injections, 0.1 ml Compound […], +/− test compounds were injected intradermally into anaesthetized, dyed, and shaved rats. Following a 15 minute incubation, the rats were sacrificed by cervical dislocation and the back skin was evulsed and placed on a light box. An image of the backlit skin was digitized using a CCD video capture camera and compatible hardware/software. The digitized image was analyzed using a scientific graphics analysis software package, and the areas of capillary permeability (bluing) were integrated and digital values were obtained for further analysis.
A dose response curve was generated using Compound 48/80 at various doses from ca. 0.01 μg through ca 15 μg. […] A dose of 0.15 μg of Compound 48/80 was selected for conducting further tests.
A dose response curve was prepared for the standard compound, f-Met-Leu-Phe, using the selected dose of 0.15 μg Compound 48/80. […]

| Molecule | Reduction of airway eosinophils over time course [1] | % Degranulation (mast cells) [%] | Inhibition of degranulation induced by Compound 48/80, dose response curve (mast cells; doses of 0 to about 230 nM peptide, 0.15 μg Compound 48/80 (FIG. 2, FIG. 3)) |
| --- | --- | --- | --- |
| CC(c1cc2ccccc2s1)N(O)C(N)=O (centres unmarked) [Zileuton, N-[1-benzo[b]thien-2-ylethyl]-N-hydroxyurea, reference compound] | reduced eosinophils generally through 1-3 month | – | – |
| N-acetyl-Met-Leu-Phe [Example 3] | – | 98 | – |
| f-Met-Leu-Tyr [Example 10] | – | 30 | – |
| f-Met-Leu-Phe [Example 2, reference compound] | – | 60 | Inhibition of degranulation induced by Compound 48/80 was clearly shown |
